The text below walks through data of US20240425518A1, “N-MACROCYCLIC AMIDE COMPOUNDS, PREPARATION METHODS THEREOF AND APPLICATIONS THEREOF AS MEDICAMENTS” (Chengdu FANXI Biopharma Co., Ltd., priority 2023, published 2024).

In test [1] the target is T1, Ab1 (h) (Homo sapiens, UniProt P00519).
T1 construct: purchased Eurofins
As to the kind of experiment: Radioisotope labeling kinase assay (Eurofins), Ab1. As to conditions: for activity at 1 µM: 1 μM compound, read-out: Inhibitory activity per unit concentration/Activity % Ab1 (h). The test is classed as biochemical.

The target in test [2] is T2, Flt3 (D835Y) (h) (Homo sapiens, UniProt P36888, D835Y).
T2 construct: purchased Eurofins
T2 sequence (P36888 27-993 D835Y): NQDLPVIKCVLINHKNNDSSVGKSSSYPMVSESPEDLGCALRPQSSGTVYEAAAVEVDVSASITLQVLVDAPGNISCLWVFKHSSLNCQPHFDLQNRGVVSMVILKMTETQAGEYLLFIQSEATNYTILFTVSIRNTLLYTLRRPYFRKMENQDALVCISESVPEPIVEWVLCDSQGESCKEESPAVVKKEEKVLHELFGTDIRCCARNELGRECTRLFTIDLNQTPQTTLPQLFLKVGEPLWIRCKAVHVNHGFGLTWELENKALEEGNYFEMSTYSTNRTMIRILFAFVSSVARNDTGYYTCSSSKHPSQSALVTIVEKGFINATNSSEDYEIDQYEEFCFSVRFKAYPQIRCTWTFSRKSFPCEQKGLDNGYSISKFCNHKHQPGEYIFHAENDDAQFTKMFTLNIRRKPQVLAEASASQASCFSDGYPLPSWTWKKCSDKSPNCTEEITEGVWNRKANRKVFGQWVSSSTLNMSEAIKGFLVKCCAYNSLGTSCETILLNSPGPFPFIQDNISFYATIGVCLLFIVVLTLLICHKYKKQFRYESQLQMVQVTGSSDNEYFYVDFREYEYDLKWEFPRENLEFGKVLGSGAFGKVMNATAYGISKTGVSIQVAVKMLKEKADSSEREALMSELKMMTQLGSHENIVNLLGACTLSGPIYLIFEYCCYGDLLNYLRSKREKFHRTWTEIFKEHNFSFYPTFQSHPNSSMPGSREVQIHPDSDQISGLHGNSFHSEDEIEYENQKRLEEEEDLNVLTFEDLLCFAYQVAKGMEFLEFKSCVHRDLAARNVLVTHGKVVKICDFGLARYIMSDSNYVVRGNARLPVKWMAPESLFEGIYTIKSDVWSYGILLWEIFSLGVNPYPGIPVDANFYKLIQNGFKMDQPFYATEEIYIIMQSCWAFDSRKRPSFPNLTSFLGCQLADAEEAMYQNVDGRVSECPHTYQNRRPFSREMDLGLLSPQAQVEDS
As to the kind of experiment: Radioisotope labeling kinase assay (Eurofins), Flt3 (D835Y). The test is classed as biochemical. The following applies: for activity at 1 µM: 1 μM compound, read-out: Inhibitory activity per unit concentration/Activity % Flt3 (D835Y) (h).

The target of test [3] is T3, JAK1 (h) (Homo sapiens, UniProt P23458).
T3 construct: purchased Eurofins
As to the kind of experiment: Radioisotope labeling kinase assay (Eurofins), JAK1. Type of test: biochemical. The protocol:
(§1) An activity to a human recombinant protein kinase of a series of compounds was determined by a radioisotope labeling method, which was provided by Eurofins Company. A compound to be detected was mixed with a corresponding protein kinase buffer (20 mM propyl sulfonate (MOPS, […].), 1 mM EDTA, 0.10 β-mercaptoethanol, 0.010 Brij-35, […], and 1 mg/mL BSA), the mixture was added into a reaction system (100 μM reaction substrate […], 8 mM MOPS with a pH value of 7.0, 10 mM MgAcetate, 0.2 mM EDTA, and a certain concentration of γ-^33P-ATP). After adding an MgATP composite solution, the reaction was started at room temperature for 40 minutes, and the reaction was terminated by adding 5 μl of […] solution. Then, 10 μl of reaction solution was dropwise added onto a filter and washed with 75 mM phosphoric acid solution for three times, 5 minutes each time, then washed with methanol once again, and dried and subjected to scintillation counting.

In test [4] the target is T4, JAK2 (h) (Homo sapiens, UniProt O60674).
T4 construct: purchased Eurofins
T4 sequence (O60674 whole entry): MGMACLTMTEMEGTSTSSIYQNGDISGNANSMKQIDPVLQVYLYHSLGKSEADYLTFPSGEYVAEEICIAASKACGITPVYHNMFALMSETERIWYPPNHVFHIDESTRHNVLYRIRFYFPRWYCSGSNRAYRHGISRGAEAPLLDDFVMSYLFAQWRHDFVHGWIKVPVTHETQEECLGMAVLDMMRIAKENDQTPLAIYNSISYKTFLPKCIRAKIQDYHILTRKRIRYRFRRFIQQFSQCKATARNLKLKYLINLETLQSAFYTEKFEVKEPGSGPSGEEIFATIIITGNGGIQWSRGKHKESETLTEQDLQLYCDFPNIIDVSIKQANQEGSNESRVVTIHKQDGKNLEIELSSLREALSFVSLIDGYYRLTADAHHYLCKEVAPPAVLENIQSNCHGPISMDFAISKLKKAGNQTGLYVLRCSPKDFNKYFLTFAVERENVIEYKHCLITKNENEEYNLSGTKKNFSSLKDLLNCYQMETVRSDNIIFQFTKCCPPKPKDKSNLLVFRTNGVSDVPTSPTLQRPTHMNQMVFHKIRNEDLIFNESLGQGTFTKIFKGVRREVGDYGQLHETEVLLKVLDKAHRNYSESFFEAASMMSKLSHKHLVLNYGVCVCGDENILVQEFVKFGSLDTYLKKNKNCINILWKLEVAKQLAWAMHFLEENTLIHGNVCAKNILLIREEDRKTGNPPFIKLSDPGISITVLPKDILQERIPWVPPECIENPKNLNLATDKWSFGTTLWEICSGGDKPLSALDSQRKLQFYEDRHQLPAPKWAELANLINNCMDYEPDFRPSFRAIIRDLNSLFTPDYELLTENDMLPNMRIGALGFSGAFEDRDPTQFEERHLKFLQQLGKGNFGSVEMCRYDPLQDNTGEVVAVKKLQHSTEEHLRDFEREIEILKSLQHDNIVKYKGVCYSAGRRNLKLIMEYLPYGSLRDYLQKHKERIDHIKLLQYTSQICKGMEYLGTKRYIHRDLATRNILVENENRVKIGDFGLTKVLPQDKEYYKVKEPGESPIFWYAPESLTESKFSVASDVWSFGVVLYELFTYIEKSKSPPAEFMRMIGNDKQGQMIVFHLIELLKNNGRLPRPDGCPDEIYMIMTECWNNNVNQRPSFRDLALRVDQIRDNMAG
Kind of test: Radioisotope labeling kinase assay (Eurofins), JAK2. The test is classed as biochemical. On the procedure: as §1

Test [5] addresses T5, EGFR (T790M, L858R) (h) (Homo sapiens, UniProt P00533, L858R/T790M).
T5 construct: purchased Eurofins
Kind of test: Radioisotope labeling kinase assay (Eurofins), EGFR (T790M, L858R). The test is classed as biochemical. On the procedure:
as §1

Test [6] concerns the target T6, Ret (h) (Homo sapiens, UniProt P07949).
T6 construct: purchased Eurofins
Kind of test: Radioisotope labeling kinase assay (Eurofins), Ret. Type of test: biochemical. On the procedure: as §1

In test [7] the target is T7, KDR (h) (Homo sapiens, UniProt P35968).
T7 construct: purchased Eurofins
T7 sequence (P35968 20-1356): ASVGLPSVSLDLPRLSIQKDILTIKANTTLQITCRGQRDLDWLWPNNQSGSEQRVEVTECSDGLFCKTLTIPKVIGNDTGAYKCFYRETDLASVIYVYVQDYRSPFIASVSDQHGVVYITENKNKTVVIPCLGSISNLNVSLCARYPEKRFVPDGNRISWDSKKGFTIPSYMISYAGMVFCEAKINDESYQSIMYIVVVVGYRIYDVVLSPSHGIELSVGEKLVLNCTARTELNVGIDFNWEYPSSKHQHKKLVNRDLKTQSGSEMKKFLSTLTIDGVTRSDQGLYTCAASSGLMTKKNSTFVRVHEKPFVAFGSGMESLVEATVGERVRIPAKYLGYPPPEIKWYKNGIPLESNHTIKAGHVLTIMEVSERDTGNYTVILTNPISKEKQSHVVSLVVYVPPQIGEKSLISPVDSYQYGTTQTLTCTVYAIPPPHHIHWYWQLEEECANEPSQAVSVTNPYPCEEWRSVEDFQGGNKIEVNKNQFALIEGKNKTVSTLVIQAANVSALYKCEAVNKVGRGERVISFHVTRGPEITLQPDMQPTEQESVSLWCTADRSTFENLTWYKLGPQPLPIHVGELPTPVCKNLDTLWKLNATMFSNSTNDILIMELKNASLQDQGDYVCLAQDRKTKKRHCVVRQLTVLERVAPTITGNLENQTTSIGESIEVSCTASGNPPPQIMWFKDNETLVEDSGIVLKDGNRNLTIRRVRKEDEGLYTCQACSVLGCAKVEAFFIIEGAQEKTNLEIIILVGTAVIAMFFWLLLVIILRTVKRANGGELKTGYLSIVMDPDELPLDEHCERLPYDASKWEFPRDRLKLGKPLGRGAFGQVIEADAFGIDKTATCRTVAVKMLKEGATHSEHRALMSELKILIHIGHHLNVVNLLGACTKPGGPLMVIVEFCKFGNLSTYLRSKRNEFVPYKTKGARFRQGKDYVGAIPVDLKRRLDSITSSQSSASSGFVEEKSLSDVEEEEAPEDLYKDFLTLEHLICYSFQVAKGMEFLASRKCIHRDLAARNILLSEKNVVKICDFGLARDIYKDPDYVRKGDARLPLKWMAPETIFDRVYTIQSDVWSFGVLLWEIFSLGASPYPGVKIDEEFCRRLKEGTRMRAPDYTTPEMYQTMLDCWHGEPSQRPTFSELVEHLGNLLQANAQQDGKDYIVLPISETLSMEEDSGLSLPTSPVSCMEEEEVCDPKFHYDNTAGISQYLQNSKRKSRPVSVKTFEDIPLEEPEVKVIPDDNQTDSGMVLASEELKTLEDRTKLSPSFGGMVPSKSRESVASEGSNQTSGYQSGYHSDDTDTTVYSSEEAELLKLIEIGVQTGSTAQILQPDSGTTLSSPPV
Kind of test: Radioisotope labeling kinase assay (Eurofins), KDR. The test is classed as biochemical. The protocol:
as §1

Test [8] deals with MGC-803 Human gastric cancer cells. Kind of test: MTT cell proliferation inhibition, MGC-803. Type of test: cell-based. As to conditions: MGC-803, 72 hours. The protocol:
(§2) Human cancer cells were purchased from ATCC. The cells were cultured in a culture medium according to the work instruction of ATCC. A dose-response curve was drawn by XL-fitting to determine an IC50 value of a compound. […] Cell proliferation inhibition could be detected by a MTT method (3-(4,5-Dimethylthiazol-2-yl)-2,5-diphenyltetrazolium bromide, and MTT; and 3-(4,5-dimethyl thiazole-2)-2,5-diphenyltertazolium bromide, and thiazolyl blue).
(§3) The cells were cultured in a culture dish first, and the cells in a logarithmic growth phase were inoculated into a 96-well plate (3,000 to 5,000 adherent cells/well, 10,000 to 30,000 suspended cells/well) according to a specific number, with 100 microliters per well, and then cultured in an incubator of 5% CO2 and 37° C. […] An absorbance of a general control group should be a normal value between 0.8 and 1.2. After obtaining absorbance data, a change curve of an inhibition rate was fitted by GraphPad Prism6.03 software and an IC50 value was calculated.
(§4) Calculation of drug inhibition rate: relative cell proliferation inhibition rate=[(control group A570−experimental group A570)/control group […], wherein A570 represented the absorbance at 570 nm.

Test [9] relates to HL-60 Human acute myelogenous leukemia. As to the kind of experiment: MTT cell proliferation inhibition, HL-60. The test is classed as cell-based. The following applies: HL-60, 72 hours. On the procedure: as §2, §3, §4
The subject of test [10] is MV4-11 Human acute myelogenous leukemia. Kind of test: MTT cell proliferation inhibition, MV4-11. As to conditions: MV4-11, 72 hours. The test is classed as cell-based. The protocol:
as §2, §3, §4

Test [11] has as its system MM1S Human myeloma cells. Kind of test: MTT cell proliferation inhibition, MM1S. The following applies: MM1.S, 72 hours. The test is classed as cell-based. On the procedure: as §2, §3, §4
The test system of test [12] is RPMI 8226 Human myeloma cells. As to the kind of experiment: MTT cell proliferation inhibition, RPMI 8226. The following applies: RPMI 8226, 72 hours. Type of test: cell-based. On the procedure:
as §2, §3, §4

The subject of test [13] is Karpas-299 Human anaplastic large cell lymphoma cells. As to the kind of experiment: MTT cell proliferation inhibition, Karpas-299. Type of test: cell-based. The following applies: Karpas-299, 72 hours. The protocol: as §2, §3, §4
For test [14], the system named is TT Human medullary thyroid cancer. Kind of test: MTT cell proliferation inhibition, TT. As to conditions: 72 hours. The test is classed as cell-based. The protocol:
as §2, §3, §4

pIC50: −log10 of the molar value.

As a reminder, the pIC50 is the IC50 on a negative log10 scale, so that one unit is a factor of ten. Read a low pIC50 as a large IC50.

T1 sequence (P00519 whole entry): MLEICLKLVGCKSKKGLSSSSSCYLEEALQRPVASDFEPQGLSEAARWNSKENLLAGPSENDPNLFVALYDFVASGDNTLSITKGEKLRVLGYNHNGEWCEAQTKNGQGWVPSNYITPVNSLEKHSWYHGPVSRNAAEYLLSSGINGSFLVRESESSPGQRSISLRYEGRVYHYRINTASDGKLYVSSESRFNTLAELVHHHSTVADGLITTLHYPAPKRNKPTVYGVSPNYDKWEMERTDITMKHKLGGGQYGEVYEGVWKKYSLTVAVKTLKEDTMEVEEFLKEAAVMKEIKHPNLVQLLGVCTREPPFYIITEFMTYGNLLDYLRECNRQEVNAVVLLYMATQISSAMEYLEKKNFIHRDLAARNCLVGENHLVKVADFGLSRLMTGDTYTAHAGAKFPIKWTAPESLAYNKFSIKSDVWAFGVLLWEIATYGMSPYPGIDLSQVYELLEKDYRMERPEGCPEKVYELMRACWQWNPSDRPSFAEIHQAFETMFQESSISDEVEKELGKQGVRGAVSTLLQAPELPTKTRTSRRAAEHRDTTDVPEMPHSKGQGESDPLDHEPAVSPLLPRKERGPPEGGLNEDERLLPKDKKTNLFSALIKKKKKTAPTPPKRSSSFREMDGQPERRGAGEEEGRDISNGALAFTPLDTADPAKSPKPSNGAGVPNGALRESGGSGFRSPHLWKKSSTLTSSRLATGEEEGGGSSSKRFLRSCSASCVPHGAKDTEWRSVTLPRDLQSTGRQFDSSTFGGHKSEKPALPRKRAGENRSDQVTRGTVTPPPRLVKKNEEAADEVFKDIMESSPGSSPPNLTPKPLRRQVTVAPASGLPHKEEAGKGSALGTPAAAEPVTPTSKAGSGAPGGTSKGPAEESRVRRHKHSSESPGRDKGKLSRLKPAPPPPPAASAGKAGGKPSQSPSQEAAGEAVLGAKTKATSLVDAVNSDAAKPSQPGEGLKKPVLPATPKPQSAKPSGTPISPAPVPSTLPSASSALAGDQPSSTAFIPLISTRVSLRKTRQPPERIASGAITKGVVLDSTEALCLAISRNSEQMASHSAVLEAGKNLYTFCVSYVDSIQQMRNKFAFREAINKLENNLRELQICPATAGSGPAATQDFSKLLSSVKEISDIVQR
T5 sequence (P00533 25-1210 T790M/L858R): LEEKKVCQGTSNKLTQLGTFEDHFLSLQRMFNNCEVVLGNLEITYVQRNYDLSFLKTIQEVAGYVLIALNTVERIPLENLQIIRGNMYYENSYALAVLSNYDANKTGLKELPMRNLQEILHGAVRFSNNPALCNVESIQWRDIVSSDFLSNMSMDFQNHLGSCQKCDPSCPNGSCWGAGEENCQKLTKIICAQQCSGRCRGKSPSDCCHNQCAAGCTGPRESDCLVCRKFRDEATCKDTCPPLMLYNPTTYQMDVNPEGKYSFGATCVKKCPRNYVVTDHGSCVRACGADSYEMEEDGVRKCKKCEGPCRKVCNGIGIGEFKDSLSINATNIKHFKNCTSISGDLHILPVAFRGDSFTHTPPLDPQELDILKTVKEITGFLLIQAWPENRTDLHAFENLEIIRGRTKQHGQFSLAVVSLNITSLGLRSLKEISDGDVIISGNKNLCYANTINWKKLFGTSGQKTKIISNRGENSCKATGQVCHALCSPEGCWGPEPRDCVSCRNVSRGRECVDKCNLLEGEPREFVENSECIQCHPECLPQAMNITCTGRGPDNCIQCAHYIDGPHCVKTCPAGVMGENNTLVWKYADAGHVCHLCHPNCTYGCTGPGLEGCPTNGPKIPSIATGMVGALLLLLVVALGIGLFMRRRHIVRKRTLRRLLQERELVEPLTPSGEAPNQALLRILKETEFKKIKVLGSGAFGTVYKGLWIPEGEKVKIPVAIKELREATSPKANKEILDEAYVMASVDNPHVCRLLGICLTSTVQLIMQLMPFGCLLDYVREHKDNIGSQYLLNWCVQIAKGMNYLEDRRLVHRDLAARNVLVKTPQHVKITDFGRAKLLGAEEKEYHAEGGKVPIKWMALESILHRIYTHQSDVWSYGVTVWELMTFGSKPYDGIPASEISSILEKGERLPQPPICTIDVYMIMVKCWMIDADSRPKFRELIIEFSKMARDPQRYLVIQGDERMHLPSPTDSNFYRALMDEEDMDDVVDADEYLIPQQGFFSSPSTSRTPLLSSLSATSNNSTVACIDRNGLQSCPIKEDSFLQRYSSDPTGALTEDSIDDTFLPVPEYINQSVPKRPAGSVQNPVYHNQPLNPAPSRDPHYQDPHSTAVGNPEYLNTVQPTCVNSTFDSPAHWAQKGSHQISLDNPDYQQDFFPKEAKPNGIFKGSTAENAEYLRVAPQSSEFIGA

Consider `C/C=C/C(=O)Nc1cc2cc(c1)Nc1nccc(n1)-c1cccc(c1)COC/C=C/COC2` [XVI-4], for which the activity at 1 µM in test [1] was 11%; in [2] it was -1%. Further, the pIC50 in test [2] is 8.00; in test [3], 7.36; in test [4], 8.00; in test [5] it was 7.22; in test [6], 6.50.
Regarding `CN(C)C/C=C/C(=O)Nc1cc2cc(c1)Nc1nccc(n1)-c1cccc(c1)COC/C=C/COC2` [XVI-8], the values for the activity at 1 µM in [1] and in [2] were 4% and -2%, respectively. In addition, the pIC50 in test [2] is 8.05; in test [3], 6.58; in test [4], 7.54; in test [5] it was 7.77; in test [7] it was 7.01; in [6] it was 7.10.
As for `CN(C)C/C=C/C(=O)Nc1cc2cc(c1)Nc1nccc(n1)-c1cccc(c1)COC/C=C/CN(C)C2` [XVI-26], the activity at 1 µM came out at 32% in test [1] and 0% in [2]. Also, the pIC50 in [2] was 7.77; in test [3], 6.87; in test [4], 6.48; in [5], 6.79; in test [7], 6.48; in [6], 6.23.
For the compound `O=C(/C=C/CN1CCOCC1)Nc1cc2cc(c1)Nc1nccc(n1)-c1cccc(c1)COC/C=C/COC2` [XVI-3], the results for the activity at 1 µM in test [1] and in test [2] were 8% and 1%, respectively. The pIC50 in test [2] is 8.30; in test [3] it was 7.36; in [4], 8.22; in test [5], 7.68; in test [7], 7.68; in [6], 6.84. Moreover, the pIC50 in test [8] is 5.56; in test [9], 6.06; in [10] it was 7.06; in test [11], 6.42; in test [12] it was 5.69; in [13], 5.93. The compound also showed a pIC50 in test [14] of 5.83.
Take `C=CC(=O)Nc1cc2cc(c1)Nc1nccc(n1)-c1cccc(c1)COC/C=C/COC2` [XVI-6]: the values for the activity at 1 µM in test [1] and in test [2] were 17% and -1%, respectively. In addition, the pIC50 is 8.00 in test [2]; 6.97 in [3]; 7.80 in test [4]; 7.19 in [5]; 7.21 in test [7]; 6.69 in [6].
On to `O=C(/C=C/C(=O)N1CCNCC1)Nc1cc2cc(c1)Nc1nccc(n1)-c1cccc(c1)COC/C=C/COC2` [XVI-11], for which the pIC50 was 7.47 in [1]; 8.22 in test [2]; 6.78 in test [3]; 7.42 in test [4]; 6.72 in [7]. Also, the activity at 1 µM in test [1] is -1%; in test [2] it was 1%.
Take `O=C(/C=C/CN1CCCC1)Nc1cc2cc(c1)Nc1nccc(n1)-c1cccc(c1)COC/C=C/COC2` [XVI-1]: the activity at 1 µM in test [1] and in test [2] was -1% in each case. In addition, the pIC50 was 8.52 in [2]; 7.16 in [3]; 8.05 in test [4]; 8.00 in test [5]; 7.77 in test [7]; 7.18 in test [6]. Moreover, the pIC50 is 6.24 in test [8]; 6.49 in [9]; 7.52 in test [10]; 7.04 in test [11]; 6.33 in [12]; 6.88 in test [13]. Further, the pIC50 in test [14] was 6.84.
For `O=C(/C=C/C(=O)N1CCOCC1)Nc1cc2cc(c1)Nc1nccc(n1)-c1cccc(c1)COC/C=C/COC2` [XVI-10], the pIC50 in test [1] is 6.86; in [2] it was 8.40; in test [3], 7.05; in [4] it was 7.77; in test [7], 7.40. For the same compound, the activity at 1 µM in [1] is 9%; in [2], 5%.
Take `C#CC(=O)Nc1cc2cc(c1)Nc1nccc(n1)-c1cccc(c1)COC/C=C/COC2` [XVII-1]: the values for the activity at 1 µM in test [1] and in test [2] were 1% and -1%, respectively. For the same compound, the pIC50 in test [2] was 8.15; in test [3] it was 7.48; in test [4] it was 7.89; in [5] it was 7.41; in test [6] it was 6.96.
With `Nc1cc2cc(c1)Nc1nccc(n1)-c1cccc(c1)COC/C=C/COC2` [XIII-1], the activity at 1 µM in test [1] is 11%; in test [2], -1%. In addition, the negative-log IC50 (pIC50) in test [2] was 8.05; in [3] it was 7.77; in test [4], 8.22; in test [5], 7.72; in [7], 7.30; in test [6] it was 6.91.
On to `O=C(O)/C=C/C(=O)Nc1cc2cc(c1)Nc1nccc(n1)-c1cccc(c1)COC/C=C/COC2` [XVI-9], for which the negative-log IC50 (pIC50) in test [2] was 8.30; in [3], 7.72; in [4], 8.15. Moreover, the activity at 1 µM in test [2] stood at 1%.
Take `C/C=C/C(=O)Nc1cc2cc(c1)Nc1nccc(n1)-c1cccc(c1)COC/C=C/CN(C)C2` [XVI-28]: the activity at 1 µM in test [1] came to 37%; in [2], 1%. Also, the pIC50 was 7.70 in [2]; 7.40 in test [3]; 7.07 in test [4]; 6.52 in test [5]; 7.12 in test [7]; 5.70 in [6].
For the compound `C1=C/COCc2cccc(c2)-c2ccnc(n2)Nc2cc(cc(OC/C=C/CN3CCCC3)c2)COC/1` [XVI-12], the negative-log IC50 (pIC50) in test [2] was 8.52; in test [3], 6.31; in test [4] it was 6.91. Further, the activity at 1 µM in test [2] came out at 7%.
